{"source": "paper PMC8556085", "about": "“Antimicrobial and Antioxidant Secondary Metabolites from Trifolium baccarinii Chiov. (Fabaceae) and Their Mechanisms of Antibacterial Action” (BioMed Research International, 2021)", "format_in_all_cases": "cell-based", "key": {"[1]": {"test_system": "Candida albicans ATCC10231", "test": "Broth microdilution MIC/MMC", "summary_of_the_method": "(§1)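 In each well, sample dilutions met inoculum in MHB or SDB, giving final concentrations of 2048 to 0.125 μg/mL. Plates were shaken at 37°C for 24 h for bacteria, and at 30°C for 48 h for C. albicans or 72 h for C. neoformans, before visual MIC scoring.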"}, "[2]": {"test_system": "Cryptococcus neoformans H99", "test": "Broth microdilution MIC/MMC", "summary_of_the_method": "as §1"}, "Escherichia coli S2(1)": {"test_system": "Escherichia coli S2(1)", "test": "Broth microdilution MIC/MMC", "summary_of_the_method": "as §1"}, "[3]": {"test_system": "Pseudomonas aeruginosa ATCC27853", "test": "Broth microdilution MIC/MMC", "summary_of_the_method": "as §1"}, "[4]": {"test_system": "Staphylococcus aureus ATCC25923", "test": "Broth microdilution MIC/MMC", "summary_of_the_method": "as §1"}, "[5]": {"test_system": "methicillin-resistant Staphylococcus aureus 03 (MRSA03)", "test": "Broth microdilution MIC/MMC", "summary_of_the_method": "as §1"}, "[6]": {"test_system": "methicillin-resistant Staphylococcus aureus 04 (MRSA04)", "test": "Broth microdilution MIC/MMC", "summary_of_the_method": "as §1"}, "[7]": {"test_system": "Pseudomonas aeruginosa ATCC27853", "test": "Bacteriolytic assay (time-kill kinetic method, OD600)", "settings": "Pseudomonas aeruginosa suspension, 2xMIC, after 240 min, compared to the 0 time value", "protocol": "(§2) (1) Bacteriolytic Assay. […] Full growth of bacterium in MHB was diluted 100 times and incubated at 37°C to produce an OD600 of 0.8 as a starting inoculum. Sample solutions were added to the starting bacterial suspension to give a final concentration of 2xMIC and incubated at 37°C under agitation at 150 rpm. After the incubation period corresponding to 0, 15, 30, 60, 120, and 240 min, 100 μL was pipetted from each tube and the optical density was recorded at 600 nm using the Biobase UV-Vis spectrophotometer. Corresponding dilutions of test samples were used as blanks. Oxacillin was used as a positive control, and the tubes without an extract/compound served as negative controls. All the measurements were done in triplicate and repeated three times."}, "[8]": {"test_system": "Staphylococcus aureus ATCC25923", "test": "Bacteriolytic assay (time-kill kinetic method, OD600)", "settings": "Staphylococcus aureus ATCC25923 suspension, 2xMIC, after 240 min, compared to the 0 time value", "protocol": "as §2"}, "[9]": {"test_system": "superoxide dismutase (SOD)", "test": "Superoxide dismutase (SOD) activity in treated bacterial cell lysates", "settings": "Staphylococcus aureus ATCC25923 and MRSA03, MIC and 1/2xMIC, 24 h", "protocol": "(3) Antioxidant Enzyme Activities. For evaluation of catalase and superoxide dismutase (SOD) activities, Staphylococcus aureus ATCC25923 and MRSA03 (1.5 × 10^8 CFU/mL, 500 μL) cultures from the late exponential growth phase were treated with MIC and 1/2xMIC of the methanol extract (500 μL), compound 5 (500 μL), and oxacillin (500 μL) solutions and incubated at 37°C for 24 h. The suspension was centrifuged at 3000 rpm for 5 min to separate the supernatant. The pellet was washed twice with PBS and resuspended in 500 μL of cell lysate buffer (1 mM EDTA, 10 Mm Tris-HCl, 0.1% Triton-X-100, and 150 mM NaCl) and incubated at 37°C for 1 h. Contents were then centrifuged at 3000 rpm for 5 min, and the supernatant was collected for enzyme activity assays.\nSuperoxide dismutase (SOD) activity. This was determined using a kit (Sigma, catalogue no. 19160) in the cell lysate. […] The reaction mixture was incubated in the dark at 37°C for 20 min, and the absorbance was read at 450 nm on a BioTek Synergy 2 multiplate reader. The SOD activity was calculated based on the following formula: [(ABlank1–ABlank3) − (ASample–ABlank2)/(ABlank1–ABlank3) × 100], where Blank 1 contains ultrapure water, WST solution, and enzyme solution, Blank 2 contains sample solution, WST solution, and dilution buffer, and Blank 3 contains ultrapure water, WST solution, and dilution buffer."}, "[10]": {"settings": "Pseudomonas aeruginosa ATCC27853"}, "[11]": {"settings": "Staphylococcus aureus ATCC25923"}}, "data": [{"substance": "4,7,2′-trihydroxy-4′-methoxyisoflavanol [compound 5]", "values": [{"measurement": "MMC", "setting": "[1]; Candida albicans ATCC10231", "result": 16, "unit": "µg/mL"}, {"measurement": "MMC/MIC", "setting": "[1]; Candida albicans ATCC10231", "result": 2}, {"measurement": "MIC", "setting": "[1]; Candida albicans ATCC10231, 48 h, 30°C", "result": 8, "unit": "µg/mL"}, {"measurement": "MMC", "setting": "[2]; Cryptococcus neoformans H99", "result": 8, "unit": "µg/mL"}, {"measurement": "MMC/MIC", "setting": "[2]; Cryptococcus neoformans H99", "result": 1}, {"measurement": "MIC", "setting": "[2]; Cryptococcus neoformans H99, 72 h, 30°C", "result": 8, "unit": "µg/mL"}, {"measurement": "MMC", "setting": "Escherichia coli S2(1)", "result": 16, "unit": "µg/mL"}, {"measurement": "MMC/MIC", "setting": "Escherichia coli S2(1)", "result": 2}, {"measurement": "MIC", "setting": "Escherichia coli S2(1); 24 h, 37°C", "result": 8, "unit": "µg/mL"}, {"measurement": "MMC", "setting": "[3]; [10]", "result": 8, "unit": "µg/mL"}, {"measurement": "MMC/MIC", "setting": "[3]; [10]", "result": 1}, {"measurement": "MIC", "setting": "[3]; Pseudomonas aeruginosa ATCC27853, 24 h, 37°C", "result": 8, "unit": "µg/mL"}, {"measurement": "MMC", "setting": "[4]; [11]", "result": 8, "unit": "µg/mL"}, {"measurement": "MMC/MIC", "setting": "[4]; [11]", "result": 1}, {"measurement": "MIC", "setting": "[4]; Staphylococcus aureus ATCC25923, 24 h, 37°C", "result": 8, "unit": "µg/mL"}, {"measurement": "MMC", "setting": "[5]; MRSA03", "result": 32, "unit": "µg/mL"}, {"measurement": "MMC/MIC", "setting": "[5]; MRSA03", "result": 2}, {"measurement": "MIC", "setting": "[5]; MRSA03, 24 h, 37°C", "result": 16, "unit": "µg/mL"}, {"measurement": "MMC", "setting": "[6]; MRSA04", "result": 16, "unit": "µg/mL"}, {"measurement": "MMC/MIC", "setting": "[6]; MRSA04", "result": 1}, {"measurement": "MIC", "setting": "[6]; MRSA04, 24 h, 37°C", "result": 16, "unit": "µg/mL"}, {"measurement": "decline in cell turbidity", "setting": "[7]", "result": 99.85, "unit": "%"}, {"measurement": "decline in cell turbidity", "setting": "[8]", "result": 99.87, "unit": "%"}, {"measurement": "SOD activity vs untreated cell lysates", "setting": "[9]", "result": "significant concentration-dependent decreases"}]}]}
